Assay results taken from patent US7763267B2, “Versatile high load concentrate compositions for control of ecto- parasites” (Wyeth LLC, priority 2005, dated 2010).

Test system: biting lice
Assay: Effect of metaflumizone body spray on biting lice of sheep
Format: in vivo
Settings: 10 mg/kg as body spray (1500 ml/animal), vs untreated control lice/animal
Description: 12.59 grams of metaflumizone is added to dimethyl isosorbide using mild heating (approximately 40° C.). To this solution is added 109.92 grams Cremophor® EL (polyethoxylated castor oil, sold by Basf Aktiengesellschaft), with stirring, followed by q.s. 200 ml 1-methoxy-2-propyl acetate The resultant solution is stored until ready for use, whereupon it can be diluted with water for use as a spray (17 ml of concentrate diluted to 3500 ml with water), or with water for use as a feed/water additive (in approximately the same ratio).
This formulation was diluted with water to a metaflumizone concentration of 10 mg/kg bodyweight, and applied to sheep at 1500 ml/animal to test the effect of metaflumizone on biting lice

Measured: % Efficacy

N#Cc1ccc(CC(=NNC(=O)Nc2ccc(OC(F)(F)F)cc2)c2cccc(C(F)(F)F)c2)cc1 [metaflumizone, (E Z)-2-[2-(4-cyanophenyl)-1-[3-(trifluoromethyl)phenyl]ethylidene]-N-[4-(trifluoromethoxy)phenyl]hydrazinecarboxamide]
100%: 7 days after treatment | 14 days after treatment | 21 days after treatment | 28 days after treatment
